According to PubChem BioAssay (NCI):
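Five concentrations, 48 hours, 96-well plates. TGI: total growth inhibition.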

Tests used:
Test in all cases: NCI tumour cell line growth inhibition, 48 h
CAKI-1 renal = test system: CAKI-1 renal
COLO 205 colon = test system: COLO 205 colon
HT29 colon = test system: HT29 colon
A549 NSCLC = test system: A549 NSCLC
UACC-257 melanoma = test system: UACC-257 melanoma
HCT-15 colon = test system: HCT-15 colon
K-562 leukemia = test system: K-562 leukemia
PC-3 prostate = test system: PC-3 prostate
SK-MEL-5 melanoma = test system: SK-MEL-5 melanoma
HCT-116 colon = test system: HCT-116 colon

Row | SMILES | TGI (CAKI-1 renal) | TGI (COLO 205 colon) | TGI (HT29 colon) | TGI (A549 NSCLC) | TGI (UACC-257 melanoma) | TGI (HCT-15 colon) | TGI (K-562 leukemia) | TGI (PC-3 prostate) | TGI (SK-MEL-5 melanoma) | TGI (HCT-116 colon)
1 | NC(CCl)=NC1CN2CCC1CC2 (stereo not given) | > 100 µM | 73.8 µM | > 100 µM | > 100 µM | > 100 µM | > 100 µM | > 100 µM | > 100 µM | > 100 µM | > 100 µM
2 | CN(C)Cc1cc(C(C)(C)C)cc(CNC2CCCCC2)c1O | > 100 µM | 33.3 µM | 54.6 µM | > 100 µM | 79.8 µM | > 100 µM | 76.2 µM | > 100 µM | 30.2 µM | 71.5 µM
3 | Cc1ccc(C(=O)Cc2nc3ncccc3[nH]c2=O)cc1 | > 100 µM | > 100 µM | > 100 µM | 26.7 µM | > 100 µM | > 100 µM | > 100 µM | > 100 µM | > 100 µM | 70.4 µM
4 | O=c1[nH]nc(-c2ccc([N+](=O)[O-])cc2)n1/N=C/c1ccc([N+](=O)[O-])cc1 | > 100 µM | > 100 µM | > 100 µM | > 100 µM | > 100 µM | > 100 µM | > 100 µM | > 100 µM | > 100 µM | > 100 µM
5 | COc1ccc(C[C@H]2NC(=O)/C=C/C[C@@H]([C@H](C)[C@H]3O[C@@H]3c3ccccc3)OC(=O)[C@H](CC(C)C)OC(=O)[C@H](C)CNC2=O)cc1 | > 0.0001 µM | 4.99e-05 µM | > 6.54e-05 µM | > 0.0001 µM | > 0.0001 µM | > 0.0001 µM | > 8.13e-05 µM | > 0.0001 µM | 7.06e-05 µM | > 0.0001 µM
6 | CC(=O)c1cc2c(s1)C(=O)c1scc(C(C)=O)c1C2=O | 2.34 µM | 3.54 µM | 4.2 µM | 2.71 µM | 0.544 µM | 1.07 µM | 3.54 µM | 1.53 µM | 1.53 µM | 1.12 µM
7 | OC12C3C4CC5C(C4[C@@H]1Br)C2[C@@](O)(c1c(F)c(F)c(F)c(F)c1F)C53 (stereo not given in full) | 43.8 µM | > 100 µM | > 100 µM | > 100 µM | > 100 µM | > 100 µM | 61.5 µM | 94.4 µM | 59.3 µM | > 100 µM
8 | c1ccc2c(c1)CCN(C1=NCCO1)C2 | > 10 µM | > 10 µM | > 10 µM | > 10 µM | > 10 µM | > 10 µM | > 10 µM | > 10 µM | > 10 µM | > 10 µM
9 | COC(=O)C1=COC(C)C2C[n+]3ccc4c([nH]c5ccccc54)c3CC12 (stereo not given) | > 100 µM | > 100 µM | > 100 µM | > 100 µM | > 100 µM | > 100 µM | > 100 µM | > 100 µM | > 100 µM | > 100 µM
10 | Cc1cccc(/C=N/NC(=S)N2CCCCCC2)n1 | 8.86 µM | 0.632 µM | > 40 µM | 17.2 µM | 1.91 µM | > 36.3 µM | > 100 µM | > 72.5 µM | 2 µM | 0.11 µM
11 | OCCN1CN(c2nc(N3CN(CCO)C3)nc(N3CN(CCO)C3)n2)C1 | 58.2 µM | 59.2 µM | 71.4 µM | > 100 µM | 36.2 µM | 46.7 µM | 87.3 µM | 49.8 µM | 33.4 µM | 42 µM
